Laboratory results from patent US5126341A, “Anti-inflammatory 1,8-naphthyridin-2-one derivatives” (Kyowa Hakko Kogyo Co., Ltd., priority 1990, dated 1992).
Read-outs that look alike come from different tables or passages of the source.

How the values were obtained:
[1] = system: zymosan-induced paw edema; assay: Effect on zymosan-induced paw edema; assay type: in vivo, male Wistar rats; conditions: rat, 100 mg/kg p.o., 1 hour before 1% zymosan; paw volume 4 hours after injection
Protocol: b) Effect on zymosan-induced paw edema
(§1) The experiment was carried out in the same manner as in the carrageenin-induced paw edema test except that 1% zymosan (Zymosan A®; Sigma Chemical Co.) was used in place of 1% carrageenin and the right hind paw volume was measured 4 hours after the injection of the edema-inducing substance instead of 3 hours. The swelling rate and the suppression rate were calculated by equation 1 and equation 2, respectively.

[2] = system: Type III allergic reaction-induced pleurisy; assay: Effect on Type III allergic reaction-induced pleurisy; assay type: in vivo, male Wistar rats; conditions: po, 4.5 h, rat, 100 mg/kg p.o., four and a half hours after induction of pleurisy
Protocol: d) Effect on Type III allergic reaction-induced pleurisy
IgG was purified from rabbit anti-OA serum prepared in advance by the method of Koda et al. [Folia Pharmacol., Japon 66, 237, (1970)] in the following manner.
A saturated solution of ammonium sulfate (half volume of the serum) was added to the anti-OA serum, and the mixture was left for one hour at 4° C. The precipitate was taken by centrifugation (3,000 rpm, 30 min, 4° C.) and dissolved in phosphate buffered saline of Dulbecco. Then, ammonium sulfate fractionation was carried out three times in the same manner as above, whereby a purified IgG fraction was obtained.
Male Wistar rats weighing 225-250 g were pre-bred for several days and fasted overnight prior to the experiment The test compound (100 mg/kg) was orally administered to the animals, and after 30 minutes, IgG of rabbit anti-OA (0.2 ml, 5 mg protein/ml) was injected into the pleural cavity of the animals under anesthesia with ether. Thirty minutes after the injection of IgG, OA (albumin egg grade III; Sigma Chemical Co.) was intravenously injected into the animals as an inducer of pleurisy. After two hours, Evans Blue (25 mg/kg) was intravenously injected, and four and a half hours after the induction of pleurisy, the animals were killed by bleeding.
Then, an exudate in the pleural cavity was obtained, and the volume of the exudate was measured. The pleural cavity was rinsed with 5 ml of physiological saline and the rinsings were added to the exudate. The number of infiltrated cells in the mixture was counted and the volume of the dye in the mixture was determined by the absorption at 625 nm [Agent Actions., 25, 326 (1988)]. The suppression rates for the volume of the exudate, the number of infiltrated cells and the volume of the dye in the pleural cavity were calculated by the following equation 3. [formula]
S.V: the value obtained with the group administered with the test compound and in which pleurisy is induced
N.V: the value obtained with the group in which pleurisy is not induced
P.V: the value obtained with the group administered with no test compound and in which pleurisy is induced

[3] = system: carrageenin-induced paw edema; assay: Effect on carrageenin-induced paw edema; assay type: in vivo, male Wistar rats; conditions: po; rat, 100 mg/kg p.o., 1 hour before 1% carrageenin; paw volume 3 hours after injection; read-out: Suppression rate for paw swelling, (a) carrageenin-induced edema
Protocol: a) Effect on carrageenin-induced paw edema
Male Wistar rats weighing 150 to 160 g (n=3-5) were used in the experiment. After the right hind paw volume was measured with the plethysmograph (TK-101; Unicom Co., Ltd.), the test compound (100 mg/kg) was orally administered. After one hour, 0.1 ml of 1 % carrageenin (λ-carrageenin; PICNIN-A®, Zushi Kagaku Co., Ltd.) was subcutaneously injected into the right hind paw footpad. Three hours after the injection of carrageenin, the right hind paw volume was measured and the swelling rate was determined by the following equation 1. [formula]
Vt: the right hind paw volume measured 3 hours after the injection of carrageenin
Vo: the right hind paw volume measured prior to the injection of carrageenin
The suppression rate was calculated by the following equation 2. [formula]
Swt: the swelling rate of the group administered with the test compound
Swc: the swelling rate of the control group administered with no test compound

male dd-mice = conditions: mouse, in vivo, 10080 min; for Acute toxicity (MLD, Minimum Lethal Dose) i.p.: ip; for Acute toxicity (MLD, Minimum Lethal Dose) p.o.: po
Protocol: The test compounds were orally or intraperitoneally administered to male dd-mice weighing 20 to 25 g. MLD (Minimum Lethal Dose) was determined by observing the mortality for seven days after the administration.

[4] = system: arachidonic acid-induced paw edema; assay: Arachidonic acid-induced paw edema; assay type: in vivo, male Wistar rats; conditions: rat, 100 mg/kg p.o., 1 hour before 0.5% arachidonic acid; paw volume one hour after injection
Protocol: c) Arachidonic acid-induced paw edema
as §1, with “0.5% arachidonic acid” for “1% zymosan (Zymosan A®; Sigma Chemical Co.)”, “one hour” for “4 hours”

[5] = Evans Blue 25 mg/kg i.v., absorption at 625 nm, read-out: Suppression rate, volume of dye in the exudate
[6] = read-out: Suppression rate, volume of exudate
[7] = read-out: Suppression rate, number of infiltrated cells in the exudate

Row | SMILES | Suppression rate for paw swelling, (b) zymosan-induced edema [1] | inhibition in vivo at 100 mg/kg [2, 5] | inhibition in vivo at 100 mg/kg [2, 6] | inhibition in vivo at 100 mg/kg [3] | Acute toxicity (MLD, Minimum Lethal Dose) i.p. (male dd-mice) | Acute toxicity (MLD, Minimum Lethal Dose) p.o. (male dd-mice) | inhibition in vivo at 100 mg/kg [2, 7] | Suppression rate for paw swelling, (c) arachidonic acid-induced edema [4]
1 | CCCCNC(=O)c1c(O)c2cccnc2n(-c2ccccc2)c1=O [Compound 1, N-(n-Butyl)-4-hydroxy-2-oxo-1-phenyl-1H-1,8-naphthyridine-3-carboxamide] | 20.5% |  |  |  |  |  |  | 
2 | CNC(=O)c1c(O)c2cccnc2n(-c2ccccc2)c1=O [Compound 2, 4-Hydroxy-N-methyl-2-oxo-1-phenyl-1H-1,8-naphthyridine-3-carboxamide] |  | 28.3% | 27.2% |  |  |  |  | 
3 | CN(C)NC(=O)c1c(O)c2cccnc2n(-c2ccccc2)c1=O [Compound 6, N-Dimethylamino-4-hydroxy-2-oxo-1-phenyl-1H-1,8-naphthyridine-3-carboxamide] | 27.3% |  |  | 31.7% | > 100 mg/kg | > 300 mg/kg |  | 
4 | CN(C)CCNC(=O)c1c(O)c2cccnc2n(-c2ccccc2)c1=O [Compound 7, N-(2-Dimethylaminoethyl)-4-hydroxy-2-oxo-1-phenyl-1H-1,8-naphthyridine-3-carboxamide] |  |  |  | 23.2% | > 100 mg/kg | > 300 mg/kg |  | 
5 | O=C(Nc1cccc(Cl)c1)c1c(O)c2cccnc2n(-c2ccccc2)c1=O [Compound 8, N-(3-Chlorophenyl)-4-hydroxy-2-oxo-1-phenyl-1H-1,8-naphthyridine-3-carboxamide] |  |  |  |  |  |  | 21.7% | 
6 | Cc1cccc(NC(=O)c2c(O)c3cccnc3n(-c3ccccc3)c2=O)c1 [Compound 9, 4-Hydroxy-N-(3-methylphenyl)-2-oxo-1-phenyl-1H-1,8-naphthyridine-3-carboxamide] |  |  | 27.3% | 25.2% | > 100 mg/kg | > 300 mg/kg | 28.5% | 
7 | O=C(Nc1cccc([N+](=O)[O-])c1)c1c(O)c2cccnc2n(-c2ccccc2)c1=O [Compound 11, 4-Hydroxy-N-(3-nitrophenyl)-2-oxo-1-phenyl-1H-1,8-naphthyridine-3-carboxamide] |  | 37.2% | 22.1% |  | > 100 mg/kg | > 300 mg/kg |  | 
8 | O=C(Nc1nccs1)c1c(O)c2cccnc2n(-c2ccccc2)c1=O [Compound 12, 4-Hydroxy-2-oxo-1-phenyl-N-(2-thiazolyl)-1H-1,8-naphthyridine-3-carboxamide] |  | 24% |  |  |  |  |  | 
9 | O=C(Nc1nc2ccccc2s1)c1c(O)c2cccnc2n(-c2ccccc2)c1=O [Compound 13, N-(2-Benzothiazolyl)-4-hydroxy-2-oxo-1-phenyl-1H-1,8-naphthyridine-3-carboxamide] |  | 25.8% | 28.9% |  |  |  |  | 
10 | COc1ccc(NC(=O)c2c(O)c3cccnc3n(-c3ccccc3)c2=O)cc1 [Compound 16, 4-Hydroxy-N-(4-methoxyphenyl)-2-oxo-1-phenyl-1H-1,8-naphthyridine-3-carboxamide] |  |  |  |  |  |  | 25.4% | 
11 | Cc1ccc(NC(=O)c2c(O)c3cccnc3n(-c3ccccc3)c2=O)cc1 [Compound 17, 4-Hydroxy-N-(4-methylphenyl)-2-oxo-1-phenyl-1H-1,8-naphthyridine-3-carboxamide] |  |  | 22.4% |  |  |  | 21.5% | 
12 | COc1cccc(NC(=O)c2c(O)c3cccnc3n(-c3ccccc3)c2=O)c1 [Compound 18, 4-Hydroxy-N-(3-methoxyphenyl)-2-oxo-1-phenyl-1H-1,8-naphthyridine-3-carboxamide] |  |  | 26.9% |  |  |  | 22.1% | 
13 | COc1ccccc1NC(=O)c1c(O)c2cccnc2n(-c2ccccc2)c1=O [Compound 19, 4-Hydroxy-N-(2-methoxyphenyl)-2-oxo-1-phenyl-1H-1,8-naphthyridine-3-carboxamide] |  |  |  | 34.2% | > 100 mg/kg | > 300 mg/kg | 26.8% | 
14 | O=C(NC1CCN(Cc2ccccc2)CC1)c1c(O)c2cccnc2n(-c2ccccc2)c1=O [Compound 21, N-(1-Benzylpiperidin-4-yl)-4-hydroxy-2-oxo-1-phenyl-1H-1,8-naphthyridine-3-carboxamide] |  | 50.2% | 32.4% |  |  |  | 22.1% | 
15 | O=C(NC1=NCCS1)c1c(O)c2cccnc2n(-c2ccccc2)c1=O [Compound 22, 4-Hydroxy-2-oxo-1-phenyl-N-(thiazolin-2-yl)-1H-1,8-naphthyridine-3-carboxamide] |  | 51% | 89.2% |  | > 100 mg/kg | > 300 mg/kg | 34.6% | 33.4%
16 | O=C(Nc1cnccn1)c1c(O)c2cccnc2n(-c2ccccc2)c1=O [Compound 23, 4-Hydroxy-2-oxo-1-phenyl-N-(pyrazin-2-yl)-1H-1,8-naphthyridine-3-carboxamide] | 22.2% | 43.2% | 24% | 22.7% | > 100 mg/kg | > 300 mg/kg | 26.7% | 
17 | CCc1nnc(NC(=O)c2c(O)c3cccnc3n(-c3ccccc3)c2=O)s1 [Compound 24, 4-Hydroxy-2-oxo-1-phenyl-N-(5-ethyl-1,3,4-thiadiazol-2-yl)-1H-1,8-naphthyridine-3-carboxamide] |  | 32.1% | 29.7% |  |  |  |  | 
18 | O=C(NN1CCOCC1)c1c(O)c2cccnc2n(-c2ccccc2)c1=O [Compound 27, 4-Hydroxy-N-morpholino-2-oxo-1-phenyl-1H-1,8-naphthyridine-3-carboxamide] |  | 23.6% |  |  |  |  |  | 
19 | O=C(NCc1ccncc1)c1c(O)c2cccnc2n(-c2ccccc2)c1=O [Compound 28, 4-Hydroxy-2-oxo-1-phenyl-N-(4-pyridylmethyl)-1H-1,8-naphthyridine-3-carboxamide] |  |  |  | 27.3% | > 100 mg/kg | > 300 mg/kg |  | 41.6%
20 | O=C(NCc1cccnc1)c1c(O)c2cccnc2n(-c2ccccc2)c1=O [Compound 29, 4-Hydroxy-2-oxo-1-phenyl-N-(3-pyridylmethyl)-1H-1,8-naphthyridine-3-carboxamide] |  |  |  |  | > 100 mg/kg | > 300 mg/kg |  | 33.3%
